Biological target: T1, sirtuin protein (Homo sapiens, UniProt Q96EB6)
T1 sequence (Q96EB6 2-747 limits assumed): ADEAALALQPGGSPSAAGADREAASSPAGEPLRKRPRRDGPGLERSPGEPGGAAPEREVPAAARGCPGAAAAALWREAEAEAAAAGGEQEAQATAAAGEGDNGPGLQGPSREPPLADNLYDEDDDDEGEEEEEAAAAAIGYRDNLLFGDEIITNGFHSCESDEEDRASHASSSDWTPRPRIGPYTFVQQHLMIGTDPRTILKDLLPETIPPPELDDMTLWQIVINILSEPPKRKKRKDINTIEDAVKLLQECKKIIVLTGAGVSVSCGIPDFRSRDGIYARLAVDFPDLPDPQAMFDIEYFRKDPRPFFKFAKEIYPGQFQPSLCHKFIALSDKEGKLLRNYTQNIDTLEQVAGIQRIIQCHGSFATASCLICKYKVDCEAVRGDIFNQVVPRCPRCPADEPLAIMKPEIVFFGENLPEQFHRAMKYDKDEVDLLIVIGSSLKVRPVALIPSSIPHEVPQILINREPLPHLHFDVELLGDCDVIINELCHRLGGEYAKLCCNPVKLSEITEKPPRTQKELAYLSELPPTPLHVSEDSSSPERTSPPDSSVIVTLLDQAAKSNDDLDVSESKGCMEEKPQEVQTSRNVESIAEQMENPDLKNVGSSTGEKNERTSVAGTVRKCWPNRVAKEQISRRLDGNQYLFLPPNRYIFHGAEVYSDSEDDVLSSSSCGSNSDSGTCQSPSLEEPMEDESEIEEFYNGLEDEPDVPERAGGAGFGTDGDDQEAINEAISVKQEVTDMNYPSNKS
Assay: MS assay (IC50 MS ASSAY / ED50 MS / FOLD ACTIVATION MS)
Type: biochemical
Design: scale not given here

[1] = Table 4, class symbols, legend not given
[2] = Table 4, class symbols A′, A, B, D, NA, legend not given
[3] = MS assay, class symbols A′, A, B, D, NA, legend not given

Measured: ED50 MS ASSAY

COc1cc(C(=O)Nc2ccccc2-c2cn3cc(CN(C)C)sc3n2)cc(OC)c1OC [Compound 179]
A′: TABLE 4 | Table 4 | [1] | class symbols, no key given

COc1ccc(C(=O)Nc2cccc(-c3nc4cccnc4[nH]3)c2)c(OC)c1OC [Compound 181]
A′: TABLE 4 | Table 4 | [1] | class symbols, no key given

COc1cc(C)ccc1C(=O)Nc1cccc(-c2nc3cccnc3[nH]2)c1 [Compound 182]
A′: TABLE 4 | Table 4 | [1] | class symbols, no key given

COc1ccc(C(=O)Nc2cccc(-c3nc4ncccc4[nH]3)c2)c(OC)c1 [Compound 184]
A′: TABLE 4 | Table 4 | [1] | class symbols, no key given

COc1ccc(C(=O)Nc2cccc(-c3nc4cccnc4[nH]3)c2)cc1OC [Compound 185]
A′: TABLE 4 | Table 4 | [1] | class symbols, no key given

COc1ccc(C(=O)Nc2ccc(-c3cc4cccnc4o3)cc2)c(OC)c1 [Compound 190]
A′: TABLE 4 | Table 4 | [1] | class symbols, no key given

COc1ccc(C(=O)Nc2cccc(-c3cc4cccnc4o3)c2)c(OC)c1 [Compound 191]
A′: TABLE 4 | Table 4 | [1] | class symbols, no key given

COc1cc(C)ccc1C(=O)Nc1cccc(-c2nc3ncccc3s2)c1 [Compound 199]
A′: TABLE 4 | Table 4 | [1] | class symbols, no key given

CN(C)c1cccc(C(=O)Nc2cccc(-c3nc4ncccc4s3)c2)c1 [Compound 200]
A′: TABLE 4 | Table 4 | [1] | class symbols, no key given

COc1ccc(C(=O)Nc2cccc(-c3nc4ncccc4s3)c2)c(OC)c1 [Compound 202]
A′: TABLE 4 | Table 4 | [1] | class symbols, no key given

COc1ccc(C(=O)Nc2ccccc2-c2cn3ccsc3n2)cc1OC [Compound 203]
A′: TABLE 4 | Table 4 | [1] | class symbols, no key given

COc1cc(C(=O)Nc2ccccc2-c2cn3ccsc3n2)cc(OC)c1OC [Compound 204]
A′: TABLE 4 | Table 4 | [1] | class symbols, no key given

COc1ccc(C(=O)Nc2cccc(-c3nc4ccccc4[nH]3)c2)c(OC)c1 [Compound 211]
A′: TABLE 4 | Table 4 | [1] | class symbols, no key given

COc1ccc(C(=O)Nc2cccc(-c3nc4cccnc4s3)c2)c(OC)c1 [Compound 213]
A′: TABLE 4 | Table 4 | [1] | class symbols, no key given

COc1cc(OC)cc(C(=O)Nc2cccc(-c3nc4cccnc4s3)c2)c1 [Compound 215]
A′: TABLE 4 | Table 4 | [1] | class symbols, no key given

COc1ccc(C(=O)Nc2cccc(-c3nc4cccnc4s3)c2)cc1 [Compound 216]
A′: TABLE 4 | Table 4 | [1] | class symbols, no key given

COc1cc(C(=O)Nc2cccc(-c3nc4cccnc4s3)c2)cc(OC)c1OC [Compound 217]
A′: TABLE 4 | Table 4 | [1] | class symbols, no key given

COc1cc(C(=O)Nc2cccc(-c3cn4cccnc4n3)c2)cc(OC)c1OC [Compound 218]
A′: Table 4 | [2] | class symbols, no key given

COc1ccc(C(=O)Nc2ccccc2-c2cc3ccccc3[nH]2)cc1OC [Compound 254]
A′: [3] | Table 4 | [2]

COc1cc(C(=O)Nc2ccccc2-c2cc3ccccc3[nH]2)cc(OC)c1OC [Compound 255]
A′: [3] | Table 4 | [2]

COc1cc(C(=O)Nc2cccc(-c3nc4ccccc4[nH]3)n2)cc(OC)c1OC [Compound 259]
A′: [3] | Table 4 | [2]

COc1ccc(C(=O)Nc2cccc(-c3nc4ccccc4[nH]3)n2)cc1OC [Compound 260]
A′: [3] | Table 4 | [2]

COc1ccc(C(=O)Nc2ccc(-c3nc4ccccc4[nH]3)cc2)c(OC)c1 [Compound 262]
A′: [3] | Table 4 | [2]

COc1ccc(C(=O)Nc2ccccc2-c2cn3ccccc3n2)cc1OC [Compound 266]
A′: [3] | Table 4 | [2]

COc1cc(C(=O)Nc2ccccc2-c2cn3ccccc3n2)cc(OC)c1OC [Compound 267]
A′: [3] | Table 4 | [2]

CN(C)c1cccc(C(=O)Nc2ccccc2-c2cn3ccccc3n2)c1 [Compound 268]
A′: [3] | Table 4 | [2]

COc1cc(C(=O)Nc2ccccc2-c2cn3cc(CN4CCNCC4)sc3n2)cc(OC)c1OC [Compound 271]
A′: [3] | Table 4 | [2]

COc1ccc(C(=O)Nc2cccc(-c3nc4cnccc4s3)c2)c(OC)c1 [Compound 272]
A′: [3] | Table 4 | [2]

COc1ccc(C(=O)Nc2ncccc2-c2nc3ccccc3[nH]2)cc1OC [Compound 276]
A′: [3] | Table 4 | [2]

COc1cc(C(=O)Nc2ccccc2-c2nc3ccccc3[nH]2)cc(OC)c1OC [Compound 293]
A′: [3] | Table 4 | [2]

COc1ccc(C(=O)Nc2ccc(-c3nc4ccccc4[nH]3)cc2)cc1OC [Compound 294]
A′: [3] | Table 4 | [2]

COc1ccc(C(=O)Nc2ccccc2-c2nc3cnccc3s2)c(OC)c1 [Compound 317]
A′: [3] | Table 4 | [2]

COc1cc(C(=O)Nc2ccccc2-c2nc3cnccc3s2)cc(OC)c1OC [Compound 319]
A′: [3] | Table 4 | [2]

CN(C)c1ccc(C(=O)Nc2ccccc2-c2nc3cnccc3s2)cc1 [Compound 320]
A′: [3] | Table 4 | [2]

CN(C)c1cccc(C(=O)Nc2ccccc2-c2nc3cnccc3s2)c1 [Compound 321]
A′: [3] | Table 4 | [2]

COc1cc(C(=O)Nc2ccc(-c3nc4ccncc4o3)cc2)cc(OC)c1OC [Compound 341]
A′: [3] | Table 4 | [2]

COc1cc(C(=O)Nc2ccc(-c3nc4cnccc4o3)cc2)cc(OC)c1OC [Compound 347]
A′: [3] | Table 4 | [2]

Source: patent US20100168084A1, “Therapeutic compounds and related methods of use” (priority 2008, published 2010)
